Source: patent US9346799B2, “Useful combinations of monobactam antibiotics with beta-lactamase inhibitors” (Basilea Pharmaceutica AG, priority 2005, dated 2016)

Assays:
Assay in all cases: MIC by broth microdilution (NCCLS M7-A5)
Enterobacter cloacae MRW = conditions: E. cloacae MRW
Acinetobacter sp. J2 = tested on: Acinetobacter sp. J2
[1] = tested on: Enterobacter cloacae M4018; conditions: E. cloacae M4018
Serratia marcescens S6 = tested on: Serratia marcescens S6
[2] = tested on: Pseudomonas aeruginosa MK1184
[3] = tested on: Enterobacter aerogenes Zayakosky; conditions: E. aerogenes Zayakosky
[4] = tested on: Enterobacter cloacae B1102; conditions: E. cloacae B1102
[5] = tested on: Pseudomonas aeruginosa 1973E
[6] = tested on: Enterobacter aerogenes B1; conditions: E. aerogenes B1
Enterobacter cloacae P99 = tested on: Enterobacter cloacae P99
[7] = tested on: Stenotrophomonas malthophilia 1AC736; conditions: Stenotrophomonas maltophilia 1AC736
[8] = tested on: Klebsiella pneumoniae CF104
[9] = tested on: Enterobacter cloacae ATCC13047/CRO-R; conditions: E. cloacae ATCC13047/CRO-R
[10] = + compound 323 and clavulanate, 4 mg/L each
[11] = + 102 + clavulanate, 4 mg/L each
[12] = + 103 + clavulanate, 4 mg/L each
[13] = + 111 + clavulanate, 4 mg/L each
[14] = + 202 + clavulanate, 4 mg/L each
[15] = + 206 + clavulanate, 4 mg/L each
[16] = + 323 + clavulanate, 4 mg/L each
[17] = + 324 + clavulanate, 4 mg/L each

For CC1C(NC(=O)C(=NOCc2cc(=O)c(O)cn2O)c2csc(N)n2)C(=O)N1S(=O)(=O)O (centres unmarked) [Compound 1], the “Minimal Inhibitory Concentration of antibiotic” value (“Minimal Inhibitory Concentration” below) (Enterobacter cloacae MRW; + clavulanate at fixed 4 mg/L) was 32 mg/L, the “Minimal Inhibitory Concentration” value (Enterobacter cloacae MRW; + compound 206 at fixed 4 mg/L) was 16 mg/L and the “Minimal Inhibitory Concentration” value (Enterobacter cloacae MRW; [10]) was 4 mg/L. For the same compound, the “Minimal Inhibitory Concentration” value (Enterobacter cloacae MRW; + compound 501 at fixed 4 mg/L) was 32 mg/L, the “Minimal Inhibitory Concentration” value (Enterobacter cloacae MRW; antibiotic alone) was >32 mg/L and the MIC of antibiotic (Acinetobacter sp. J2; Acinetobacter baumannii J2, + 102 + clavulanate, 4 mg/L each) was 4 mg/L. For the same compound, the MIC of antibiotic (Acinetobacter sp. J2; Acinetobacter baumannii J2, + 102 + sulbactam, 4 mg/L each) was 2 mg/L, the MIC of antibiotic (Acinetobacter sp. J2; Acinetobacter baumannii J2, + 103 + clavulanate, 4 mg/L each) was 8 mg/L and the MIC of antibiotic (Acinetobacter sp. J2; Acinetobacter baumannii J2, + 111 + clavulanate, 4 mg/L each) was 4 mg/L. The MIC of antibiotic (Acinetobacter sp. J2; Acinetobacter baumannii J2, + 202 + clavulanate, 4 mg/L each) was 4 mg/L, the MIC of antibiotic (Acinetobacter sp. J2; Acinetobacter baumannii J2, + 206 + clavulanate, 4 mg/L each) was 4 mg/L and the MIC of antibiotic (Acinetobacter sp. J2; Acinetobacter baumannii J2, + 323 + clavulanate, 4 mg/L each) was 16 mg/L. The MIC of antibiotic (Acinetobacter sp. J2; Acinetobacter baumannii J2, + 323 + sulbactam, 4 mg/L each) was 1 mg/L, the MIC of antibiotic (Acinetobacter sp. J2; Acinetobacter baumannii J2, + 324 + clavulanate, 4 mg/L each) was 32 mg/L and the MIC of antibiotic (Acinetobacter sp. J2; Acinetobacter baumannii J2, + 501 4 mg/L) was <0.06 mg/L. For the same compound, the MIC of antibiotic (Acinetobacter sp. J2; Acinetobacter baumannii J2, + clavulanate 4 mg/L) was >32 mg/L, the MIC of antibiotic (Acinetobacter sp. J2; Acinetobacter baumannii J2, antibiotic alone) was >32 mg/L and the MIC of antibiotic (Acinetobacter sp. J2; Acinetobacter sp. J2, antibiotic alone, no inhibitor) was >22 mg/L. The “Minimal Inhibitory Concentration” value ([1]; + clavulanate at fixed 4 mg/L) was >32 mg/L, the “Minimal Inhibitory Concentration” value ([1]; + compound 206 at fixed 4 mg/L) was 8 mg/L and the “Minimal Inhibitory Concentration” value [1, 10] was 2 mg/L. The “Minimal Inhibitory Concentration” value ([1]; + compound 501 at fixed 4 mg/L) was 16 mg/L, the “Minimal Inhibitory Concentration” value ([1]; antibiotic alone) was 32 mg/L and the MIC of antibiotic (Serratia marcescens S6; [11]) was 0.25 mg/L. It also gave an MIC of antibiotic (Serratia marcescens S6; + 102 + sulbactam, 4 mg/L each) of 0.5 mg/L, an MIC of antibiotic (Serratia marcescens S6; [12]) of 0.25 mg/L and an MIC of antibiotic (Serratia marcescens S6; [13]) of 0.25 mg/L. It also gave an MIC of antibiotic (Serratia marcescens S6; [14]) of 0.5 mg/L, an MIC of antibiotic (Serratia marcescens S6; [15]) of 4 mg/L and an MIC of antibiotic (Serratia marcescens S6; [16]) of 0.25 mg/L. It also gave an MIC of antibiotic (Serratia marcescens S6; + 323 + sulbactam, 4 mg/L each) of 0.5 mg/L, an MIC of antibiotic (Serratia marcescens S6; [17]) of 1 mg/L and an MIC of antibiotic (Serratia marcescens S6; + 501 4 mg/L) of 4 mg/L. The MIC of antibiotic (Serratia marcescens S6; + clavulanate 4 mg/L) was 4 mg/L, the MIC of antibiotic (Serratia marcescens S6; antibiotic alone) was >32 mg/L and the MIC of antibiotic (Serratia marcescens S6; antibiotic alone, no inhibitor) was 1 mg/L. It also gave an MIC of antibiotic [2, 11] of 4 mg/L, an MIC of antibiotic ([2]; + 102 + sulbactam, 4 mg/L each) of 32 mg/L and an MIC of antibiotic [2, 12] of 8 mg/L. The MIC of antibiotic [2, 13] was 8 mg/L, the MIC of antibiotic [2, 14] was 8 mg/L and the MIC of antibiotic [2, 15] was >32 mg/L. For the same compound, the MIC of antibiotic [2, 16] was 16 mg/L, the MIC of antibiotic ([2]; + 323 + sulbactam, 4 mg/L each) was 4 mg/L and the MIC of antibiotic [2, 17] was 8 mg/L. The MIC of antibiotic ([2]; + 501 4 mg/L) was >32 mg/L, the MIC of antibiotic ([2]; + clavulanate 4 mg/L) was >32 mg/L and the MIC of antibiotic ([2]; antibiotic alone) was >32 mg/L. The “Minimal Inhibitory Concentration” value ([3]; + clavulanate at fixed 4 mg/L) was >32 mg/L, the “Minimal Inhibitory Concentration” value ([3]; + compound 206 at fixed 4 mg/L) was >32 mg/L and the “Minimal Inhibitory Concentration” value [3, 10] was 16 mg/L. The “Minimal Inhibitory Concentration” value ([3]; + compound 501 at fixed 4 mg/L) was >32 mg/L, the “Minimal Inhibitory Concentration” value ([3]; antibiotic alone) was >32 mg/L and the “Minimal Inhibitory Concentration” value ([4]; + clavulanate at fixed 4 mg/L) was 32 mg/L. For the same compound, the “Minimal Inhibitory Concentration” value ([4]; + compound 206 at fixed 4 mg/L) was 16 mg/L, the “Minimal Inhibitory Concentration” value [4, 10] was 8 mg/L and the “Minimal Inhibitory Concentration” value ([4]; + compound 501 at fixed 4 mg/L) was 16 mg/L. For the same compound, the “Minimal Inhibitory Concentration” value ([4]; antibiotic alone) was >32 mg/L, the MIC of antibiotic [5, 11] was 2 mg/L and the MIC of antibiotic ([5]; + 102 + sulbactam, 4 mg/L each) was 4 mg/L. For the same compound, the MIC of antibiotic [5, 12] was 4 mg/L, the MIC of antibiotic [5, 13] was 4 mg/L and the MIC of antibiotic [5, 14] was 4 mg/L. It also gave an MIC of antibiotic [5, 15] of 4 mg/L, an MIC of antibiotic [5, 16] of 8 mg/L and an MIC of antibiotic ([5]; + 323 + sulbactam, 4 mg/L each) of 4 mg/L. It also gave an MIC of antibiotic [5, 17] of 8 mg/L, an MIC of antibiotic ([5]; + 501 4 mg/L) of 8 mg/L and an MIC of antibiotic ([5]; + clavulanate 4 mg/L) of 8 mg/L. For the same compound, the MIC of antibiotic ([5]; antibiotic alone) was 16 mg/L, the “Minimal Inhibitory Concentration” value ([6]; + clavulanate at fixed 4 mg/L) was >32 mg/L and the “Minimal Inhibitory Concentration” value ([6]; + compound 206 at fixed 4 mg/L) was 16 mg/L. The “Minimal Inhibitory Concentration” value [6, 10] was 4 mg/L, the “Minimal Inhibitory Concentration” value ([6]; + compound 501 at fixed 4 mg/L) was >32 mg/L and the “Minimal Inhibitory Concentration” value ([6]; antibiotic alone) was 32 mg/L. The MIC of antibiotic (Enterobacter cloacae P99; [11]) was 4 mg/L, the MIC of antibiotic (Enterobacter cloacae P99; + 102 + sulbactam, 4 mg/L each) was 8 mg/L and the MIC of antibiotic (Enterobacter cloacae P99; [12]) was 32 mg/L. It also gave an MIC of antibiotic (Enterobacter cloacae P99; [13]) of 4 mg/L, an MIC of antibiotic (Enterobacter cloacae P99; [14]) of 16 mg/L and an MIC of antibiotic (Enterobacter cloacae P99; [15]) of 8 mg/L. The MIC of antibiotic (Enterobacter cloacae P99; [16]) was 4 mg/L, the MIC of antibiotic (Enterobacter cloacae P99; + 323 + sulbactam, 4 mg/L each) was 4 mg/L and the MIC of antibiotic (Enterobacter cloacae P99; [17]) was 4 mg/L. The MIC of antibiotic (Enterobacter cloacae P99; + 501 4 mg/L) was 16 mg/L, the MIC of antibiotic (Enterobacter cloacae P99; + clavulanate 4 mg/L) was 32 mg/L and the MIC of antibiotic (Enterobacter cloacae P99; antibiotic alone) was >32 mg/L. The MIC of antibiotic [7, 11] was 0.125 mg/L, the MIC of antibiotic ([7]; + 102 + sulbactam, 4 mg/L each) was 2 mg/L and the MIC of antibiotic [7, 12] was 0.125 mg/L. For the same compound, the MIC of antibiotic [7, 13] was 0.125 mg/L, the MIC of antibiotic [7, 14] was 0.125 mg/L and the MIC of antibiotic [7, 15] was 0.125 mg/L. For the same compound, the MIC of antibiotic [7, 16] was 0.125 mg/L, the MIC of antibiotic ([7]; + 323 + sulbactam, 4 mg/L each) was 0.125 mg/L and the MIC of antibiotic [7, 17] was 0.125 mg/L. The MIC of antibiotic ([7]; + 501 4 mg/L) was 0.25 mg/L, the MIC of antibiotic ([7]; + clavulanate 4 mg/L) was 0.5 mg/L and the MIC of antibiotic ([7]; antibiotic alone) was 1 mg/L. The MIC of antibiotic [8, 11] was 1 mg/L, the MIC of antibiotic ([8]; + 102 + sulbactam, 4 mg/L each) was 1 mg/L and the MIC of antibiotic [8, 12] was 0.5 mg/L. The MIC of antibiotic [8, 13] was <0.06 mg/L, the MIC of antibiotic [8, 14] was 2 mg/L and the MIC of antibiotic [8, 15] was 0.25 mg/L. For the same compound, the MIC of antibiotic [8, 16] was 2 mg/L, the MIC of antibiotic ([8]; + 323 + sulbactam, 4 mg/L each) was 1 mg/L and the MIC of antibiotic [8, 17] was 1 mg/L. The MIC of antibiotic ([8]; + 501 4 mg/L) was 0.5 mg/L, the MIC of antibiotic ([8]; + clavulanate 4 mg/L) was 0.5 mg/L and the MIC of antibiotic ([8]; antibiotic alone) was >32 mg/L. For the same compound, the “Minimal Inhibitory Concentration” value ([9]; + clavulanate at fixed 4 mg/L) was >32 mg/L, the “Minimal Inhibitory Concentration” value ([9]; + compound 206 at fixed 4 mg/L) was >32 mg/L and the “Minimal Inhibitory Concentration” value [9, 10] was 8 mg/L. The “Minimal Inhibitory Concentration” value ([9]; + compound 501 at fixed 4 mg/L) was >32 mg/L and the “Minimal Inhibitory Concentration” value ([9]; antibiotic alone) was >32 mg/L.
